What all share (assay type): cell-based
For assay [1], the system named is HaCaT cells. Kind of assay: Scratch closure test. The settings on record: 5 μM, HaCaT monolayer; for scratch closure observed at 20 h: in line with EGF positive control; for scratch closure compared to vehicle control: P<0.0001 vs 1% DMSO vehicle. As to the method:
HaCaT cells (aneuploidy immortal keratinocyte cell line) were seeded in a 96-well plate at a cell density of 5×10^4 cells per well and incubated overnight at 37° C., 5% CO2 and 95% humidity. Test and control compounds were prepared in 1% DMSO and diluted to a concentration of 5 μM in pre-warmed HaCaT cell media. Cells were washed with pre-warmed PBS and the monolayers mechanically injured by introducing a vertical cell-free area in each individual well, and washed again. Test and control compounds were added and all wells microscopically imaged for time point 0. Cells were incubated as described above and imaged after 20 hours. All conditions were tested with an N of 4 replicates. Scratch closure was analysed using ImageJ software and standard deviation calculated. Scratch closure area reduction was plotted using GraphPrism 8 software.

In assay [2] the test system is Pseudomonas aeruginosa biofilm formation. The experiment in a line: Minimum Biofilm Inhibition Concentration (MBIC) assay, crystal violet biofilm mass. Conditions: for P. aeruginosa MBIC: % of Ajoene positive control IC50: IC50 relative to ajoene run in the same experiment, <100% = more effective than ajoene. As to the method:
(§1) Compounds were assayed for their ability to inhibit S. aureus or P. aeruginosa biofilm formation as follows. All compounds were prepared as a 30 mM stock in DMSO and diluted in TSB to 48 μM (S. aureus) or 144 μM (P. aeruginosa). The compounds were further serially diluted two-fold from 48 μM to 0.75 μM (S. aureus) or 144 μM to 2.3 μM (P. aeruginosa) and added to a 96-well plate at 100 μl per well. Overnight cultures of bacteria were diluted to an OD600=0.07 in fresh TSB and 100 μl of the diluted bacterial culture was added to the compound containing wells. The bacteria were incubated in the presence of the compounds overnight at 37° C. After incubation, the planktonic bacteria were removed by three washes using H2O and the remaining biofilm was stained using crystal violet and quantified photometrically at A570. Absorbances corresponding to biofilm mass were plotted versus compound concentration and IC50 values were calculated. Reference: O'Toole GA. Microtiter Dish Biofilm Formation Assay. J. Vis. Exp. (2011).
(§2) MBIC assays of the compounds are carried out alongside ajoene for reference and standardization. The 1050 of ajoene against S. aureus and P. aeruginosa is well-defined and reproducible allowing ajoene to serve as an effective control for the experiment. As such, the 1050 calculated for the tested compounds are compared to the 1050 of ajoene in every experiment and are therefore represented as % of ajoene.
(§3) The compound and the other biofilm inhibitory agents were assayed for their inhibitory activity using the MBIC method as described in Example 4. Absorbances corresponding to biofilm mass were plotted versus concentration of compound and other biofilm inhibitory agents.

Assay [3] relates to Staphylococcus aureus biofilm formation. The assay is described as above. The settings on record: for S. aureus MBIC: % of Ajoene positive control IC50: IC50 relative to ajoene run in the same experiment, <100% = more effective than ajoene. The procedure:
as §1, §2, §3

The structures appear in SMILES notation.

For `COc1ccc(CSS/C=C\CS(=O)(=O)Cc2ccc(C(F)(F)F)cc2)cc1` [Test compound 3], in assay [1], the “scratch closure observed at 20 h” value is given as “complete scratch closure” and the “scratch closure compared to vehicle control” value is “enhanced scratch closure”.
Take `C=CCSSC=CCS(=O)(=O)Cc1ccc(F)cc1`: in assay [2], the “P. aeruginosa MBIC: % of Ajoene positive control IC50” value (“P. aeruginosa MBIC: %” for short) is 49.2 % of Ajoene. In addition, the “S. aureus MBIC: % of Ajoene positive control IC50” value (“S. aureus MBIC: %” below) in assay [3] is listed as 7 % of Ajoene.
On to `C=CCSSC=CCS(=O)(=O)Cc1cccs1`, for which, in assay [2], the “P. aeruginosa MBIC: %” value was 29.7 % of Ajoene. In addition, the “S. aureus MBIC: %” value in assay [3] is 52 % of Ajoene.
For `COC(=O)c1ccc(CSS/C=C/CS(=O)(=O)Cc2ccc(C(F)(F)F)cc2)cc1` the same measures were 34.7 % of Ajoene and 20.5 % of Ajoene.
The like results for `C=CCSSC=CCS(=O)(=O)Cc1ccc(OC)cc1` were, in that order, 87 % of Ajoene and 4 % of Ajoene.
As to `COc1ccc(CSSC=CCS(=O)(=O)Cc2ccc(C(F)(F)F)cc2)cc1`, the “P. aeruginosa MBIC: %” value in assay [2] was 79 % of Ajoene. For the same molecule, the “S. aureus MBIC: %” value in assay [3] is 24 % of Ajoene.
In the case of `C=CCSSC=CCS(=O)(=O)Cc1ccc(C(F)(F)F)cc1` [test compound 2, 1-{[-3-(prop-2-en-1-yldisulfanyl)prop-2-ene-1-sulfonyl]methyl}-4-(trifluoromethyl)benzene], the “inhibitory activity on P. aeruginosa biofilm compared to ajoene, cysteamine, gallium nitrate, HDMF, and C-30” value in assay [2] (Example 6, FIG. 3) is recorded as “improved inhibitory activity”. Also, the “inhibitory activity on S. aureus biofilm compared to ajoene, cysteamine, gallium nitrate, HDMF, and C-30” value in assay [3] (Example 6, FIG. 4) is on record as “improved inhibitory activity”.
As for `C=CCSSC=CCS(=O)(=O)Cc1ccco1`, the “P. aeruginosa MBIC: %” value in assay [2] is given as 11.7 % of Ajoene. Also, the “S. aureus MBIC: %” value in assay [3] is listed as 21.9 % of Ajoene.
The like results for `C=CCSSC=CCS(=O)(=O)Cc1ccc(S(C)(=O)=O)cc1` were, in that order, 82 % of Ajoene and 23 % of Ajoene.
Turning to `O=S(=O)(CC=CSSCc1ccc(C(F)(F)F)cc1)Cc1ccc(C(F)(F)F)cc1` [test compound 1, 1-(trifluoromethyl)-4-{[(3-{[4-(trifluoromethyl)phenyl]methanesulfonyl}prop-1-en-1-yl)disulfanyl]methyl}benzene], the “IC50 against Pseudomonas aeruginosa biofilm compared to ajoene” value in assay [2] (Example 4, FIG. 2, 144 μM to 2.3 μM, overnight 37° C.) is on record as “lower 1050 than ajoene”. In assay [3] (Example 4, FIG. 1, 48 μM to 0.75 μM, overnight 37° C.), the “IC50 against Staphylococcus aureus biofilm compared to ajoene” value is “lower 1050 than ajoene”.
As for `C=CCSS/C=C/CS(=O)(=O)Cc1ccc(C(F)(F)F)cc1`, the “P. aeruginosa MBIC: %” value in assay [2] was 78.7 % of Ajoene. Besides, the “S. aureus MBIC: %” value in assay [3] is on record as 55.5 % of Ajoene.
The like results for `COc1ccccc1CSSC=CCS(=O)(=O)Cc1ccc(C(F)(F)F)cc1` were, in that order, 13.9 % of Ajoene and 51 % of Ajoene.
Turning to `C=CCSS/C=C/C[S+]([O-])CC=C` (stereo not shown) [E-ajoene], in assay [1], the “scratch closure observed at 20 h” value is recorded as “complete scratch closure” and the “scratch closure compared to vehicle control” value is on record as “enhanced scratch closure”.
On to `COc1cccc(CSSC=CCS(=O)(=O)Cc2ccc(C(F)(F)F)cc2)c1`, for which the “P. aeruginosa MBIC: %” value in assay [2] is recorded as 65.3 % of Ajoene. Also, the “S. aureus MBIC: %” value in assay [3] is listed as 20 % of Ajoene.
Consider `O=S(=O)(CC=CSSCC1CC1)CC1CC1`, for which the “P. aeruginosa MBIC: %” value in assay [2] is 57.5 % of Ajoene. Besides, the “S. aureus MBIC: %” value in assay [3] is on record as 69.18 % of Ajoene.
As to `COc1ccc(CSS/C=C/CS(=O)(=O)Cc2ccc(C(F)(F)F)cc2)cc1`, the “P. aeruginosa MBIC: %” value in assay [2] is recorded as 27.8 % of Ajoene. In assay [3], the “S. aureus MBIC: %” value is recorded as 8.2 % of Ajoene.
The like results for `C=CCSSC=CCS(=O)(=O)Cc1ccc(C(F)(F)F)cc1` [drawing 51] were, in that order, 42.75 % of Ajoene and 38.6 % of Ajoene.
The like results for `O=S(=O)(CC=CSSCc1ccc(C(F)(F)F)cc1)Cc1ccc(C(F)(F)F)cc1` [drawing 50] were, in that order, 45.3 % of Ajoene and 28.6 % of Ajoene.
Turning to `C[S+]([O-])CCCCN=C=S` (stereo not shown) [sulforaphane], in assay [1], the “scratch closure observed at 20 h” value is given as “complete scratch closure” and the “scratch closure compared to vehicle control” value is recorded as “enhanced scratch closure”.
As to `COc1ccc(CSSC=CCS(=O)(=O)Cc2ccccc2)cc1`, the “P. aeruginosa MBIC: %” value in assay [2] is on record as 56 % of Ajoene. Besides, the “S. aureus MBIC: %” value in assay [3] is given as 75 % of Ajoene.

(Values after patent US12312301B2, “Organosulfur compounds” (MARIPOSA THERAPEUTICS LTD., priority 2018, dated 2025).)
